Data taken from patent US6127377A, “Vinca alkaloid antimitotic halogenated derivatives” (Adir et Compagnie, priority 1997, dated 2000).

Test system: tubulin
Assay: inhibition of the polymerization of tubulin into microtubules, followed by changes in optical density (Weisenberg method)
Assay type: biochemical
Details: read-out: IC50, concentration of compound which brings about a 50% inhibition of the polymerization of tubulin into microtubules
Excerpt: This property was confirmed by measuring the inhibition of the polymerization of tubulin into microtubules in the presence of the compounds of the invention, according to the method described by R. C. Weisenberg (Science 177, 1196-7, 1972). The results are expressed in terms of IC50, which corresponds to the concentration of compound which brings about a 50% inhibition of the polymerization. This phenomenon is readily monitored and quantified by means of the changes in optical density.

SMILES | IC50 [µM]
CC[C@]12C=CCN3CC[C@@]4(c5cc([C@@]6(C(=O)OC)C[C@@H]7CC(C(C)Cl)CN(CCc8c6[nH]c6ccccc86)C7)c(OC)cc5N(C)[C@H]4[C@@](O)(C(=O)OC)[C@@H]1OC(C)=O)[C@@H]32 (stereo partly drawn) [Example 1, 20'-chloro-4'-deoxyvinblastine] | 1.99
CC[C@]12C=CCN3CC[C@@]4(c5cc([C@@]6(C(=O)OC)C[C@H]7CN(CCc8c6[nH]c6ccccc86)CC(F)(C(C)Cl)C7)c(OC)cc5N(C)[C@H]4[C@@](O)(C(=O)OC)[C@@H]1OC(C)=O)[C@@H]32 (stereo partly drawn) [Example 3, 20'-chloro-4'-deoxy-4'-fluorovinblastine] | 1.54
CCC1=C[C@@H]2CN(C1)Cc1c([nH]c3ccccc13)[C@@](C(=O)OC)(c1cc3c(cc1OC)N(C)[C@H]1[C@@](O)(C(=O)OC)[C@H](OC(C)=O)[C@]4(CC)C=CCN5CC[C@]31[C@@H]54)C2 [Vinorelbine, reference compound] | 1.7
